Target: Aβ40 aggregates (amyloid beta) (Homo sapiens, UniProt P05067)
Assay: fluorescence titration with Aβ aggregates
Format: binding

Chain of Aβ40 aggregates (amyloid beta) (P05067 672-711 limits assumed): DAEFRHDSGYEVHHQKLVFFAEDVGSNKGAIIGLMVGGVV

- Kd: 2890 ± 430 nM
Substance: CRANAD-147

— publication PMC10615883 (Angewandte Chemie (International ed. in English), 2023)
